Columns and labels:
[1] = Cyclic voltammetry, oxidation potential; format: physicochemical; conditions: acetonitrile, tetrabutyl ammonium perchlorate, platinum electrodes
Description: The cyclic voltammetry measurements were conducted by using acetonitrile as a solvent and tetrabutyl ammonium perchlorate as a supporting electrolyte. Each of a working electrode and a counter electrode was made from platinum. […] […] Therefore, in the compounds represented by the general formulas [Chem. 5] to [Chem. 8], it is preferable that the cyclic structures are formed by R^1 and R^2 and by R^3 and R^4, and this is supported by the result of this example.

Solubility to chloroform = format: physicochemical
Description: In this embodiment, an effect of introducing a substituent other than hydrogen into R^5 and R^6 of the compounds represented by the general formulas [Chem. 5] to [Chem. 8] will be described. […] In contrast, in the case where R^5 and R^6 are trimethylsilyl groups, the solubility to chloroform at 25° C. is 15.4 wt. %. Thus, it is possible to considerably improve the solubility by introducing the substituent into R^5 and R^6.

| SMILES | oxidation potential [1] [V] | solubility to chloroform (Solubility to chloroform) |
| --- | --- | --- |
| c1cc(-c2scc3c2OCCO3)ccc1-c1scc2c1OCCO2 [Chem. 9, 1,4-di-(3,4-ethylenedioxy-2-thienyl)benzene] | 1.20 | less than 1 wt. % |
| CCCCCCOc1csc(-c2ccc(-c3scc(OCCCCCC)c3OCCCCCC)cc2)c1OCCCCCC [Chem. 11, 1,4-bis(3,4-dihexyloxy-2-thienyl)benzene] | 1.68 |  |

Reference: US20040258954A1, “Conjugated molecule and electroluminescent device thereof and electronic device having the electroluminescent device” (Semiconductor Energy Laboratory Co., Ltd., priority 2003, published 2004)
